{"source": "paper PMC9673142", "about": "“1,3-Diarylpyrazolyl-acylsulfonamides Target HadAB/BC Complex in Mycobacterium tuberculosis” (ACS Infectious Diseases, 2022)", "key": {"Mtb HadAB": {"target": "Mtb HadAB (Mycobacterium tuberculosis, UniProt I6WYY7+P9WFK1)", "assay": "biochemical", "details": "trans-2-C16:1-CoA 60 μM, mean ± SD of duplicate assays"}, "Mtb H37Rv": {"tested_on": "Mtb H37Rv", "assay": "microbe, parasite or virus in culture", "assay_type": "cell-based", "details": "Mycobacterium tuberculosis"}, "Mtb H37Rv mc^26206": {"tested_on": "Mtb H37Rv mc^26206", "assay": "microbe, parasite or virus in culture", "assay_type": "cell-based", "details": "Mycobacterium tuberculosis, read-out: MIC Mtb WT"}, "[1]": {"target": "HadA, HadB, BCG_0547c (HadD) (Mycobacterium bovis BCG, UniProt I6WYY7+P9WFK1)", "assay": "biochemical", "assay_type": "binding", "details": "for competition from the bead matrices, HadA, HadB and HadD: at 0.49 μM, n = 3"}, "BCG_2231 (DlaT, Rv2215)": {"target": "BCG_2231 (DlaT, Rv2215) (Mycobacterium bovis, UniProt P65634)", "assay": "biochemical", "assay_type": "binding, Mycobacterium bovis BCG"}, "Mtb HadBC": {"tested_on": "Mtb HadBC", "assay_type": "biochemical", "details": "compound 50 μM, HadBC 130 nM, trans-2-C16:1-CoA 25 μM"}, "Mtb": {"tested_on": "Mtb", "assay_type": "cell-based, Mycobacterium tuberculosis"}, "HepG2": {"tested_on": "HepG2", "assay": "HepG2 cytotoxicity", "details": "Homo sapiens"}, "Mtb H37RvMA": {"tested_on": "Mtb H37RvMA", "assay": "microbe, parasite or virus in culture", "assay_type": "cell-based", "details": "Middlebrook 7H9/glycerol/ADC/tween-80"}, "[2]": {"target": "T1, BCG_0628c (lpqN, Rv0583c) (Mycobacterium tuberculosis, UniProt O53780)", "T1 sequence (O53780 20-228)": "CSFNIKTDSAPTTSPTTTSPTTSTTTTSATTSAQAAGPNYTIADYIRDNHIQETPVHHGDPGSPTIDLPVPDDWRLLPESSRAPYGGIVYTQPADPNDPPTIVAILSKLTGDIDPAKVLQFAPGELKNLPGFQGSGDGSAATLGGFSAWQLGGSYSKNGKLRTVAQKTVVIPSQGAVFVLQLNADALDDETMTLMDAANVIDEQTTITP", "assay": "biochemical", "assay_type": "binding, Mycobacterium bovis BCG"}, "[3]": {"tested_on": "mycolic acid biosynthesis in Mtb H37Rv mc^26206", "assay_type": "cell-based", "details": "3× MIC, 24 h"}, "[4]": {"details": "HepG2, read-out: HepG2 IC50 (galactose)"}, "[5]": {"details": "HepG2, read-out: HepG2 IC50 (glucose)"}}, "note": "Values joined by “and” are separate entries in the source; they are usually repeats but may differ in a detail not shown here. Equal values may be shown once. “Also recorded” adds a separate entry of the source. Read-outs that look alike come from different tables or passages of the source.", "data": [{"smiles": "CS(=O)(=O)NC(=O)CCc1cn(-c2ccc(Br)cc2)nc1-c1ccc(Cl)cc1", "note": "[Compound 9]", "values": [{"measurement": "IC50", "setting": "Mtb HadAB; HadAB 22 nM, read-out: HadAB IC50", "value": "30 ± 10", "unit": "nM"}]}, {"smiles": "O=c1[nH]nc(CCc2cn(-c3ccc(Br)cc3)nc2-c2ccc(Cl)cc2)o1", "note": "[Compound 12]", "values": [{"measurement": "MIC", "setting": "Mtb H37Rv; read-out: Mtb MIC", "value": 19, "unit": "µM"}, {"measurement": "IC50", "setting": "Mtb HadAB; HadAB IC50, HadAB 22 nM", "value": "4240 nM and 4200 nM"}, {"measurement": "MIC", "setting": "Mtb H37Rv mc^26206", "value": 3.12, "unit": "µM"}]}, {"smiles": "CS(=O)(=O)NC(=O)CCc1cn(-c2ccc(Cl)cc2)nc1-c1ccc(Cl)cc1", "note": "[Compound 2]", "values": [{"measurement": "MIC", "setting": "Mtb H37Rv; read-out: Mtb MIC", "value": 4.7, "unit": "µM"}, {"measurement": "MIC", "setting": "Mtb H37Rv; read-out: Mtb MIC (Middlebrook 7H9/DPCC/casitone/Tx)", "value": 0.8, "unit": "µM"}, {"measurement": "MIC", "setting": "Mtb H37Rv; read-out: Mtb MIC (Middlebrook 7H9/DPPC/cholesterol/BSA/Tx)", "value": 4.7, "unit": "µM"}, {"measurement": "MIC", "setting": "Mtb H37Rv; read-out: Mtb MIC (Middlebrook 7H9/casitone/Tx)", "value": 0.6, "unit": "µM"}, {"measurement": "MIC", "setting": "Mtb H37Rv; read-out: Mtb MIC (Middlebrook 7H9/glucose/BSA/Tx)", "value": 4.7, "unit": "µM"}, {"measurement": "IC50", "setting": "[1]", "value": "< 490", "unit": "nM"}, {"measurement": "competition from the bead matrices, HadA, HadB and HadD", "setting": "[1]", "value": "56–62%"}, {"measurement": "Kd", "setting": "BCG_2231 (DlaT, Rv2215)", "value": 6600, "unit": "nM"}, {"measurement": "IC50", "setting": "Mtb HadAB; HadAB IC50, HadAB 22 nM", "value": "130 ± 20", "unit": "nM"}, {"measurement": "HadBC % inhibition at 50 μM", "setting": "Mtb HadBC", "value": "did not inhibit; also recorded: No inhibition"}, {"measurement": "MIC", "setting": "Mtb H37Rv mc^26206", "value": "< 0.625", "unit": "µM"}, {"measurement": "Mtb pMIC99", "setting": "Mtb", "value": 5.5}, {"measurement": "solubility", "setting": "physchem", "value": 100, "unit": "µM"}, {"measurement": "IC50", "setting": "HepG2; [4]", "value": "> 50000", "unit": "nM"}, {"measurement": "IC50", "setting": "HepG2; [5]", "value": "> 50000", "unit": "nM"}]}, {"smiles": "CS(=O)(=O)NC(=O)CCc1cn(-c2ccc(Br)cc2)nc1-c1ccncc1", "note": "[Compound 1]", "values": [{"measurement": "Compound 1 MIC, H37RvMA (WT reference strain)", "setting": "Mtb H37RvMA", "value": 1.9, "unit": "µM"}, {"measurement": "MIC", "setting": "Mtb H37RvMA; Mycobacterium tuberculosis, H37RVMA, read-out: Compound 1 MIC, H37RvMA (WT reference strain)", "value": 1.9, "unit": "µM"}, {"measurement": "IC50", "setting": "[1]", "value": "< 160", "unit": "nM"}, {"measurement": "competition from the bead matrices, HadA, HadB and HadD", "setting": "[1]", "value": "91–92%"}, {"measurement": "Kd", "setting": "BCG_2231 (DlaT, Rv2215)", "value": 1000, "unit": "nM"}, {"measurement": "Kd", "setting": "[2]", "value": 1800, "unit": "nM"}, {"measurement": "IC50", "setting": "Mtb HadAB; HadAB IC50, HadAB 22 nM", "value": "100 ± 10", "unit": "nM"}, {"measurement": "Mtb pMIC99", "setting": "Mtb", "value": 6.2}, {"measurement": "solubility", "setting": "physchem", "value": 190, "unit": "µM"}, {"measurement": "IC50", "setting": "HepG2; [4]", "value": "> 50000", "unit": "nM"}, {"measurement": "IC50", "setting": "HepG2; [5]", "value": "> 50000", "unit": "nM"}]}, {"smiles": "CS(=O)(=O)c1nnc(Cc2cn(-c3ccc(Cl)cc3)nc2-c2ccncc2)o1", "note": "[Compound 13]", "values": [{"measurement": "MIC", "setting": "Mtb H37Rv; read-out: Mtb MIC", "value": 62.5, "unit": "µM"}, {"measurement": "IC50", "setting": "Mtb HadAB; HadAB IC50, HadAB 22 nM", "value": "102000 ± 17000", "unit": "nM"}, {"measurement": "HadBC % inhibition at 50 μM", "setting": "Mtb HadBC", "value": "37±5", "unit": "%"}, {"measurement": "inhibition of biosynthesis of mycolic acids", "setting": "[3]", "value": "0–49%"}, {"measurement": "MIC", "setting": "Mtb H37Rv mc^26206", "value": 3.75, "unit": "µM"}]}, {"smiles": "CS(=O)(=O)NC(=O)CCc1cn(-c2ccc(Cl)cc2)nc1-c1ccc(C#CCN)cc1", "note": "[Compound 4]", "values": [{"measurement": "Mtb pMIC99", "setting": "Mtb", "value": 5.4}]}, {"smiles": "CS(=O)(=O)NC(=O)NCc1cn(-c2ccc(C(F)(F)F)nc2)nc1-c1ccncc1", "note": "[Compound 11]", "values": [{"measurement": "IC50", "setting": "Mtb HadAB; HadAB IC50, HadAB 22 nM", "value": "62 nM and 60 nM"}, {"measurement": "MIC", "setting": "Mtb H37Rv mc^26206", "value": 0.625, "unit": "µM"}]}, {"smiles": "CCc1c(COC(=O)NS(C)(=O)=O)c(-c2ccc(Cl)cc2)nn1-c1ccc(Cl)cc1", "note": "[Compound 15]", "values": [{"measurement": "MIC", "setting": "Mtb H37Rv; read-out: Mtb MIC", "value": "> 50", "unit": "µM"}, {"measurement": "IC50", "setting": "Mtb HadAB; HadAB IC50, HadAB 22 nM", "value": 28000, "unit": "nM"}, {"measurement": "HadBC % inhibition at 50 μM", "setting": "Mtb HadBC", "value": "No inhibition"}, {"measurement": "MIC", "setting": "Mtb H37Rv mc^26206", "value": 3.9, "unit": "µM"}]}, {"smiles": "O=C(O)CCc1cn(-c2ccc(Br)cc2)nc1-c1ccc(Cl)cc1", "note": "[Compound 10]", "values": [{"measurement": "MIC", "setting": "Mtb H37Rv; read-out: Mtb MIC", "value": "> 50", "unit": "µM"}, {"measurement": "IC50", "setting": "Mtb HadAB; HadAB IC50, HadAB 22 nM", "value": "3300 ± 1700", "unit": "nM"}, {"measurement": "HadBC % inhibition at 50 μM", "setting": "Mtb HadBC", "value": "No inhibition"}, {"measurement": "MIC", "setting": "Mtb H37Rv mc^26206", "value": 1.5, "unit": "µM"}]}, {"smiles": "CS(=O)(=O)NC(=O)NCc1cc(-c2ccc(Br)cc2)oc1-c1ccncc1", "note": "[Compound 14]", "values": [{"measurement": "IC50", "setting": "Mtb HadAB; HadAB IC50, HadAB 22 nM", "value": "20 ± 10", "unit": "nM"}, {"measurement": "MIC", "setting": "Mtb H37Rv mc^26206", "value": "< 0.243", "unit": "µM"}]}]}
